Test results as given in PMC9318816, “Differential Effects of a Novel Opioid Ligand UTA1003 on Antinociceptive Tolerance and Motor Behaviour” (Pharmaceuticals, 2022).
Read-outs that look alike come from different tables or passages of the source. Non-standard residues stand in square brackets, D forms with d. Residues, ends and D or L forms follow the SMILES beside them. *: point of attachment. Dmt = Cc1cc(O)cc(C)c1C[C@H](N)C(=O)O; Pip = O=C(O)[C@@H]1CCCCN1; NHBn = c1ccc(CN*)cc1

What was measured:
human MOP receptor = target: T1, human MOP receptor (Homo sapiens, UniProt P35372); assay: cAMP assay in CHO-MOP cells (agonism); format: cell-based
T1 construct: expressed in transfected cells; host or cells: CHO (CHO-MOP, G418 selection)
T1 sequence (P35372 whole entry): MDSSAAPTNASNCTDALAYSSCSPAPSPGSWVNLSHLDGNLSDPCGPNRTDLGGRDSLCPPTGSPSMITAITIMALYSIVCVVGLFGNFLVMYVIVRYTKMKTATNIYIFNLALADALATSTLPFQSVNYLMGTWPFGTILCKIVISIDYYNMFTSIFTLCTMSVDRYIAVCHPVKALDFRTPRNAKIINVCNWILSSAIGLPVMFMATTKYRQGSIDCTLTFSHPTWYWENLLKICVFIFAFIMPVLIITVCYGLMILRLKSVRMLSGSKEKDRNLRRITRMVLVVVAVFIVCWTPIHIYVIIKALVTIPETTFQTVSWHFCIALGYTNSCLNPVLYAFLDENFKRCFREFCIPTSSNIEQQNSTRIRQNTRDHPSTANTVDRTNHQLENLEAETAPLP

human KOP receptor = target: T2, human KOP receptor (Homo sapiens, UniProt P41145); assay: cAMP assay in CHO-KOP cells (agonism); format: cell-based
T2 construct: expressed in transfected cells; host or cells: CHO (CHO-KOP, G418 selection)
T2 sequence (P41145 whole entry): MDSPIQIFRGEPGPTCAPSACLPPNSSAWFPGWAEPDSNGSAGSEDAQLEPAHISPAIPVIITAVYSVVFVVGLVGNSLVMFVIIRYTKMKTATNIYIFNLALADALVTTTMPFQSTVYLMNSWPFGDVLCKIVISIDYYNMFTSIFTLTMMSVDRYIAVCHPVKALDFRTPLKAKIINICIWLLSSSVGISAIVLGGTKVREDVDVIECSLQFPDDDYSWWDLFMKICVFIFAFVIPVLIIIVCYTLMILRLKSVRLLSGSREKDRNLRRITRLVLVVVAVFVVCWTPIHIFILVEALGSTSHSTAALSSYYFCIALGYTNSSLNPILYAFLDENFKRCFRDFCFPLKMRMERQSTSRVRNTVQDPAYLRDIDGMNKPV

human DOP receptor [1] = target: T3, human DOP receptor (Homo sapiens, UniProt P41143); assay: Antagonism of DPDPE effect in cAMP assay, CHO-DOP cells; format: cell-based
T3 construct: expressed in transfected cells; host or cells: CHO (CHO-DOP, G418 selection)
T3 sequence (P41143 whole entry): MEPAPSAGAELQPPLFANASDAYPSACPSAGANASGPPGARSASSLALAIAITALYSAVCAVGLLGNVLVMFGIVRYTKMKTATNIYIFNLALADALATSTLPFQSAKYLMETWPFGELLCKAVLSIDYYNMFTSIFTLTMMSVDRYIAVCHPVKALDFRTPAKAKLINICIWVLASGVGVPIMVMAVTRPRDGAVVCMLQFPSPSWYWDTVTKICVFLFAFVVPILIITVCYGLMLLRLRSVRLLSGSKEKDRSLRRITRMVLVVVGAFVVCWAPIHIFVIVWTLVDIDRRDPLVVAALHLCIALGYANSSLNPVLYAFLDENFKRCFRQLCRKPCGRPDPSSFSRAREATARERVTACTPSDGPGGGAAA
Procedure: The antagonist effect of UTA1003 was calculated as described in previous studies. […] (Figure 3E, Table 1).
For a direct comparison between the UTA ligands, standard compounds, and for the concentration-response curves, the pharmacological effect was calculated as % of inhibition of forskolin-induced cAMP production, and the values were used for statistical analysis.

human DOP receptor [2] = target: T3, human DOP receptor; assay: cAMP assay in CHO-DOP cells (agonism); format: cell-based; details: for Inhibition of forskolin-stimulated cAMP production: 100 µM ligand, CHO-DOP cells, reference DPDPE
Sprague Dawley rats [3] = assay: Open-field motor behaviour
Sprague Dawley rats [4] = assay: Observation of physiological or behavioural toxicity after subcutaneous administration; details: for Physiological or behavioural toxicity: subcutaneous administration
[5] = system: untransfected Chinese hamster ovary (CHO-WT) cells; assay: cAMP assay: inhibition of forskolin-stimulated cAMP in untransfected CHO cells; format: cell-based; details: 100 µM ligand, 1 µM forskolin
rat hippocampus = system: rat hippocampus; parameters: method as in earlier work; details: approximately five times lower dose; cited from earlier work
Solubility (subjective) = format: physicochemical; details: detailed solubility experiments not performed
human NOP receptor = target: T4, human NOP receptor (Homo sapiens, UniProt P41146); assay: cAMP assay in CHO-NOP cells (agonism); format: cell-based
T4 construct: expressed in transfected cells; host or cells: CHO (CHO-NOP, G418 and hygromycin B selection)
T4 sequence (P41146 whole entry): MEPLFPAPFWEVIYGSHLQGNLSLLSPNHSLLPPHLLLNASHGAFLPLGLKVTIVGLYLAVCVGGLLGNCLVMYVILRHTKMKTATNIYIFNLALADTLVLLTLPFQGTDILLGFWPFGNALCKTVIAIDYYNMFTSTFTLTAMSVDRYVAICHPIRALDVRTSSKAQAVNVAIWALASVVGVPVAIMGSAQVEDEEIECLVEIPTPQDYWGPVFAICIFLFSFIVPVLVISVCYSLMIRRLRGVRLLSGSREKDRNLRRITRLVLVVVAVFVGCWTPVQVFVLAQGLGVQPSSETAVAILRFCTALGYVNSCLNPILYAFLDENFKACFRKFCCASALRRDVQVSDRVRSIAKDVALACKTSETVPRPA

Sprague Dawley rats [6] = assay: Hot plate antinociception assay; details: repeated s.c. twice daily treatment; days 2, 5 and 8
NOP receptor = target: NOP receptor; parameters: method as in PMID 22194444; details: partial agonist; cited from earlier work
KOP receptor = target: KOP receptor; parameters: method as in PMID 22194444; details: partial agonist; cited from earlier work
DOP receptor = details: cited from earlier work

With C[C@@H](NC(=O)[C@@H](N)Cc1ccc(O)cc1)C(=O)NCC(=O)N(C)[C@@H](Cc1ccccc1)C(=O)NCCO [DAMGO, reference compound] the Emax (human MOP receptor; CHO-MOP, inhibition of forskolin-stimulated cAMP, read-out: Emax (%)) was 88.8%.

Cc1cc(O)cc(C)c1C[C@H](N)C(=O)N1CCCC[C@H]1C(=O)NCC(=O)NCc1ccccc1 [UTA1003] (H-[Dmt]-[Pip]-Gly-NHBn) gave an Emax (human KOP receptor) of 94.5%, an EC50 (human KOP receptor; EC50) of 30.9 nM and an EC50 (human KOP receptor; pEC50) of 30.9 nM. The Kb (human DOP receptor [1]; CHO-DOP, read-out: DOP receptor antagonism pKb (converted)) was 47.9 nM, the Kd (human DOP receptor [1]; read-out: Antagonist Effect (Kd)) was 47.8 nM and the Emax (human DOP receptor [2]) was 28.2%. The “Inhibition of forskolin-stimulated cAMP production” value (from here on “Inhibition”) (human DOP receptor [2]) was “significantly lower specificity than DPDPE”, the EC50 (human DOP receptor [2]; EC50, CHO-DOP, 1 µM forskolin) was 26.6 nM and the EC50 (human DOP receptor [2]; pEC50, CHO-DOP) was 26.3 nM. For the same compound, the “Rearing time and rearing numbers, open field” value (Sprague Dawley rats [3]; acute s.c., 30 min post administration) was “slightly reduced rearing time and rearing numbers than vehicle”, the “Total rotational activities, open field” value (Sprague Dawley rats [3]; acute s.c., 120 min observation) was “remained unaffected” and the “Moving distance, open field” value (Sprague Dawley rats [3]; acute s.c., UTA1003 24.6 mg/kg) was “unaffected”. For the same compound, the “Moving time, open field” value (Sprague Dawley rats [3]; acute s.c., UTA1003 24.6 mg/kg, 30 min post administration) was “significantly reduced moving time compared to the vehicle group”, the “Motor behaviour after repeated treatment, open field” value (Sprague Dawley rats [3]; s.c. twice daily over 8 days, 30 min post administration) was “only a mild but significant suppression of motor activity on the first day” and the Itching (Sprague Dawley rats [4]; repeated dosing) was “absent”. The “Physiological or behavioural toxicity” value (Sprague Dawley rats [4]) was “did not observe any physiological or behavioural toxicity”, the Emax (human MOP receptor) was 82.4% and the EC50 (human MOP receptor; EC50, CHO-MOP, 1 µM forskolin) was 6.89 nM. The EC50 (human MOP receptor; pEC50, CHO-MOP) was 6.92 nM, the “Inhibition” value [5] was “not observed” and the “Oxidative damage in the rat hippocampus” value (rat hippocampus) was “reduced oxidative damage in the rat hippocampus”. For the same compound, the “Solubility compared to UFP-505” value (Solubility (subjective)) was “subjectively displayed better solubility”, the Emax (human NOP receptor) was 28.3% and the EC50 (human NOP receptor; EC50, CHO-NOP, 5 µM forskolin) was 1790 nM. The EC50 (human NOP receptor; pEC50, CHO-NOP) was 1780 nM.

For CN1CC[C@]23c4c5ccc(O)c4O[C@H]2[C@@H](O)C=C[C@H]3[C@H]1C5 [morphine], the “Antinociception, morphine versus UTA1003/morphine at same day, hot plate” value (Sprague Dawley rats [6]) was “significantly lower than those of the UTA1003/morphine co-treatment on day 2”.

In the case of H-Dmt-Tic-Gly-NH-Bzl [UFP-505], the pKi (NOP receptor) is given as 5.86, the “Inhibition” value (human DOP receptor [2]) is given as “significantly lower specificity than DPDPE” and the “Physiological or behavioural toxicity” value (Sprague Dawley rats [4]) is given as “did not observe any physiological or behavioural toxicity”. For the same compound, the “Inhibition” value [5] was “not observed”, the pKi (KOP receptor) was 6.29 and the “DOP receptor antagonism pKb” value (DOP receptor; ref 37) was 9.81. For the same compound, the “DOP receptor antagonism pKb” value (DOP receptor; ref 60) was 10.50.
